In patent publication US10682371B2, “Small molecule conjugates specifically activated in tumor microenvironment for targeting and use thereof” (priority 2014, dated 2020):
Entries after “also recorded” stand apart in the source; their conditions may differ.

What was measured:
[1] = target: T1, asparagine endopeptidase (Homo sapiens, UniProt Q99538)
T1 sequence (Q99538 26-323 limits assumed): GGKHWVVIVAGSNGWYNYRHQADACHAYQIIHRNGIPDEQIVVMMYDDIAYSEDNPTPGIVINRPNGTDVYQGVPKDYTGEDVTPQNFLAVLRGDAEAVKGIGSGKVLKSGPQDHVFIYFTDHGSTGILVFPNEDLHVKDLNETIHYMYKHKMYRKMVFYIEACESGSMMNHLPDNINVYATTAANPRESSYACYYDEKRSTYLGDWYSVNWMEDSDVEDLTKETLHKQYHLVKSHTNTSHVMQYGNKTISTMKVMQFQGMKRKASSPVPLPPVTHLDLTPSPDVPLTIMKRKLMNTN
Description: Reduction of reactant and increase of product were detected by HPLC, thereby comparing the activation efficiency of these compounds.
When R1 is 2-(2-Methoxyethoxy)Acetyl, and R3 is Ala, activation study and efficacy study were carried out by using compounds having different cleavable linker. The study methods are identical to those in Examples 10, 11 and 12. The in vitro activation efficiency was tested by asparagine endopeptidase and the tumor inhibition rate was tested by using human breast cancer MDA-MB231 model.

[2] = system: Mice; experiment: Toxicity of Legutaxel injected at tail vein weekly for 3 times, observed over 21 days; assay type: in vivo
Description: Mice were injected with Legutaxel at tail vein weekly for 3 times. […] Therefore, Legutaxel's dose could at least reach 160 mg/kg/day during treatment.

[3] = system: tumor-derived immunosuppressive T cells (T reg: CD4+, CD25+, Foxp3+); CD8 T cells; experiment: Immunological stimulation test in mice receiving tumor treatment (T reg, CD8 T cells); assay type: in vivo
Description: We further studied the immunological stimulation property of Legutaxel. […] On the contrary, the index for tumor-derived immunosuppressive T cells in treatment group by Legutaxel decreased due to targeted chemotherapy (see panels in FIGS. 3A and 3B).

[4] = system: MDA-MB231 tumor tissue; experiment: Activation efficiency by MDA-MB231 tumor tissue (HPLC); assay type: biochemical
Description: At 37 °C, sample compounds were added into 100 μg acidized tumor tissue homogenates in a concentration of 1 mg/ml.
In the experiments, at 37 °C, compounds were added into proteases in 100 μg acidized tumor tissue homogenates in a concentration of 1 mg/ml. […] Meanwhile certain compounds produced in the screening were compared and their activation efficiency in same tissue was analyzed.

[5] = system: Human prostate cancer PC-3 cells; experiment: Tumor treatment in nude mice, PC-3 model (Example 51); assay type: in vivo
Description: 1) Human prostate cancer PC-3 cells were purchased from American type culture collection (ATCC) and identified according the specification provided by ATCC. Cells were cultivated in DMEM culture solution containing 10% fetal bovine serum at 37° C. and 5% CO2. The cells were passaged for every three days and cells within the 15th passage were used.
2) Production of tumor. 5×10^6PC-3 cells were subcutaneously injected to the back of the nude mice. Mice were randomly grouped after the tumor reached at least 100 mm^3. Then treatment began and the day on which the treatment began was day 1.
According to the clinical application of D1, D2, D3 and D4, drugs were intravenously injected (IV). […]. The control group was administered by physiological saline. Drugs were administered once weekly for four weeks.

[6] = Table 48, nude mice, PC-3, IV once weekly for four weeks, D1-D4 25 mg/kg, Docetaxel […], Day 10
[7] = Table 48, nude mice, PC-3, IV once weekly for four weeks, D1-D4 25 mg/kg, Docetaxel […], Day 24

Compound: 4-N—(N—(N—(N-(6-maleimido caproyl)-L-alanyl)-L-alanyl)-L-asparaginyl)-amino benzyl alcohol-MMAE-carbamate [Compound S6]
- Activation by asparagine endopeptidase, in words [1]: cannot be activated; also recorded: not activated
- Cleaving efficiency ([1]; different cleavable linkers of MMAE and Doxorubicin, in vitro activation by asparagine endopeptidase): 25.6%

Compound: COCCOCC(=O)N[C@H](C)C(=O)N[C@H](C)C(=O)N[C@H](CC(N)=O)C(=O)Nc1ccc(COC(=O)OC(C(=O)OC2C[C@@]3(O)C(OC(=O)c4ccccc4)[C@@H]4C5(OC(C)=O)COC5C[C@H](O)[C@@]4(C)C(=O)[C@H](OC(C)=O)C(=C2C)C3(C)C)[C@@H](NC(=O)c2ccccc2)c2ccccc2)cc1 (stereo in doubt) [S1′, 2-(2-methoxyethoxy) acetylamino-L-Ala-L-Ala-L-Asn-p-amino-benzyl-paclitaxel]
- Dose that can be reached during treatment ([2]; tail vein weekly for 3 times): ≥ 160 mg/kg/day
- Death in toxicity experiments ([2]; tail vein weekly for 3 times, 140, 150 and 160 mg/kg/day, observed over 21 days): no death were observed
- Toxic CD8 T cells permeated from the tumor tissue ([3]; lung cancer treatment model): more toxic CD8 T cells
- Index for tumor-derived immunosuppressive T cells (T reg: CD4+, CD25+, Foxp3+) ([3]; mice receiving tumor treatment): decreased

Compound: COCCOCC(=O)NCCCC[C@H](NC(=O)COCCOC)C(=O)N[C@H](C)C(=O)N[C@H](C)C(=O)N[C@H](CC(N)=O)C(=O)Nc1ccc(COC(=O)OC(C(=O)OC2C[C@@]3(O)[C@@H](OC(=O)c4ccccc4)[C@H]4[C@](C)(C(=O)[C@H](O)C(=C2C)C3(C)C)[C@@H](O)CC2OC[C@]24OC(C)=O)[C@@H](NC(=O)OC(C)(C)C)c2ccccc2)cc1 (stereo partly shown) [Compound B1]
- activation efficiency (%) ([4]; Table 35, water-soluble Docetaxel series and controls): 93.4%

Compound: COCCOCC(=O)N[C@H](C)C(=O)N[C@H](C)C(=O)N[C@H](CC(N)=O)C(=O)Nc1ccc(COC(=O)OC(C(=O)OC2C[C@@]3(O)[C@@H](OC(=O)c4ccccc4)[C@H]4[C@](C)(C(=O)[C@H](O)C(=C2C)C3(C)C)[C@@H](O)CC2OC[C@]24OC(C)=O)[C@@H](NC(=O)OC(C)(C)C)c2ccccc2)cc1 (stereo partly drawn) [Compound D1, 2-(2-methoxyethoxy) acetyl-L-Ala-L-Ala-L-Asn-4-amino benzyl-Docetaxel]
- activation efficiency (%) ([4]; Table 46, Docetaxel D series and controls): 91.5%
- Size of tumor (mm^3) Day 10 [5, 6]: 86.45 ± 26.42 mm^3
- inhibitory rate on tumor Day 10 [5, 6]: 75.0
- Size of tumor (mm^3) Day 24 [5, 7]: 143.34 ± 44.42 mm^3
- inhibitory rate on tumor Day 24 [5, 7]: 80.5
- Inhibition on tumor growth, in words ([5]; compared with Docetaxel group and control group): greatly improved
